# Results from patent US8916502B2, “Agent for improving lawn grass qualities” (Cosmo Oil Co., Ltd., priority 2008, dated 2014).
# Assays:
# Zoysia tenuifolia = experiment: Foliage treatment of Zoysia tenuifolia sod in pots: grass height and dry weight of shoots and stems; assay type: in vivo; settings: foliage treatment 150 L/10 a; for Grass height: 26 days after treatment; for Dry weight of stems: harvested 4 months after treatment
# Procedure: A commercially available Zoysia tenuifolia sod was cut to a size of 10×10 cm. Uniform volcanic ash soil (andosol) was introduced into a vessel (1/44,444×10 a) in a sufficient amount per pot, and a chemical fertilizer (N—P—K=8-8-8) was applied thereon in an amount, in terms of nitrogen, of 2.6 kg-N/10 a. The cut Zoysia tenuifolia sod was transplanted into the pot. […] The grass height was measured 26 days after the treatment, and thereby the dwarfing effect was investigated.
# bentgrass = experiment: Foliage treatment of bentgrass sod in pots: leaf count and L*a*b* colour; assay type: in vivo; settings: 30 days after treatment, 5-aminolevulinic acid hydrochloride 200 mg/10 a and/or prohexadione calcium salt 12.5 g/10 a; for Color system L* / Color system b* / Color system a*: colorimeter; for Color system a*: more negative = greener; for Plant count of lawn grass: foliage treatment 150 L/10 a
# From the text: A commercially available bentgrass sod was cut into a circular form having a diameter of 10 cm. Uniform volcanic ash soil (andosol) was introduced into a vessel (1/17,500×10 a) in a sufficient amount per pot, and a liquid fertilizer (Hyponica) was applied thereon in an amount, in terms of nitrogen, of 3 kg-N/10 a. The cut bentgrass sod was transplanted into the pot.
# [1] = 5-aminolevulinic acid hydrochloride 600 mg/10 a and/or trinexapac-ethyl 20 g/10 a
# [2] = 5-aminolevulinic acid hydrochloride 600 mg/10 a and/or paclobutrazol 36 g/10 a
# [3] = 5-aminolevulinic acid hydrochloride 600 mg/10 a and/or flurprimidol 84 g/10 a
# [4] = 5-aminolevulinic acid hydrochloride 600 mg/10 a and/or prohexadione calcium salt 20 g/10 a
Compound,Dry weight of shoots (Zoysia tenuifolia; [1]),Grass height (Zoysia tenuifolia; [1]),Dry weight of stems (Zoysia tenuifolia; [1]),Dry weight of shoots (Zoysia tenuifolia; [2]),Grass height (Zoysia tenuifolia; [2]),Dry weight of stems (Zoysia tenuifolia; [2]),Dry weight of shoots (Zoysia tenuifolia; [3]),Dry weight of shoots (Zoysia tenuifolia; [4]),Grass height (Zoysia tenuifolia; [3]),Grass height (Zoysia tenuifolia; [4]),Dry weight of stems (Zoysia tenuifolia; [3]),Dry weight of stems (Zoysia tenuifolia; [4]),Color system L* (bentgrass),Color system b* (bentgrass),Color system a* (bentgrass),Plant count of lawn grass (bentgrass)
"CCOC(=O)C1CC(=O)C(=C(O)C2CC2)C(=O)C1 (stereo not drawn) [Trinexapac-ethyl, ethyl=4-cyclopropyl-α-hydroxymethylene)-3,5-dioxocyclohexane carboxylate]",0.44 g,3.5 cm,12.8 g,,,,,,,,,,,,,
"CC(C)(C)[C@@H](O)[C@@H](Cc1ccc(Cl)cc1)n1cncn1 (racemic) [paclobutrazol, (2RS,3RS)-1-(4-chlorophenyl)-4,4-dimethyl-2-(1H-1,2,4-triazol-1-yl)pentan-3-ol]",,,,0.81 g,3.5 cm,14.8 g,,,,,,,,,,
Cl.NCC(=O)CCC(=O)O [5-aminolevulinic acid hydrochloride],0.90 g,4.2 cm,12.0 g,0.90 g,4.2 cm,12.0 g,0.90 g,0.90 g,4.2 cm,4.2 cm,12.0 g,12.0 g,34.0,17.6,−8.8,54.2 plants/9 cm^2
"CCC(=O)C1=C([O-])CC(C(=O)[O-])CC1=O.[Ca+2] (centres unmarked) [Prohexadione calcium salt, calcium 3-oxido-5-oxo-4-propionyl-3-cyclohexene carboxylate]",,,,,,,,0.72 g,,3.5 cm,,11.3 g,33.2,17.0,−8.9,65.5 plants/9 cm^2
